# Measured values from patent US8637553B2, “Fluoro substituted omega-carboxyaryl diphenyl urea for the treatment and prevention of diseases and conditions” (Bayer Healthcare LLC, priority 2003, dated 2014).
# Key:
# [1] = target: T1, p38 α2 (Homo sapiens, UniProt Q16539); assay: p38 kinase in vitro assay; conditions: in vitro kinase biochemical assay
# T1 construct: His; made in house; host or cells: E. coli
# Experimental: Purified and His-tagged p38 α2 (expressed in E. Coli) was activated in vitro by MMK-6 to a high specific activity. Using a microtiter format, all reactions were conducted in 100 μL volumes with reagents diluted to yield 0.05 μg/well of activated p38 α2 and 10 μg/well of myelin basic protein in assay buffer (25 mM HEPES 7.4, 20 mM MgCl2, 150 mM NaCl). Test compounds (5 μL of a 10% DMSO solution in water) were prepared and diluted into the assay to cover a final concentration range from 5 nM to 2.5 μM. The kinase assay was initiated by addition of 25 μL of an ATP cocktail to give a final concentration of 10 μM cold ATP and 0.2 μCi [gamma-^33P] ATP per well (200-400 dpm/pmol of ATP). The plate was incubated at 32° C. for 35 min., and the reaction quenched with 7 μL of a 1 N aq HCl solution. The samples were harvested onto a P30 Filtermat (Wallac, Inc.) using a TomTec 1295 Harvester (Wallac, Inc.), and counted in a LKB 1205 Betaplate Liquid Scintillation Counter (Wallac, Inc.). Negative controls included substrate plus ATP alone. SW1353 cellular assay: SW1353 cells (human chondro-sarcoma) are seeded (1000 cells/100 μL DMEM 10% FCS/well) into 96-well plates and incubated overnight. […] Cultures are incubated for 48 h at 37° C., then supernatant IL-6 values are determined by ELISA.
# [2] = system: pERK in MDA-MB-231 cells; assay: Bio-Plex phospho-ERK 1/2 immunoassay (basal pERK); assay type: cell-based; conditions: Homo sapiens, 2 h incubation
# Experimental: A 96 well pERK immunoassay, using laser flow cytometry (Bio-Rad) platform has been established to measure inhibition of basal pERK in breast cancer cell line. MDA-MB-231 cells were plated at 50,000 cells per well in 96 well microtitre plates in complete growth media. For effects of test compounds on basal pERK½ inhibition, the next day after plating, MDA-MB-231 cells were transferred to DMEM with 0.1% BSA and incubated with test compounds diluted 1:3 to a final concentration of 3 μM to 12 nM in 0.1% DMSO. Cells were incubated with test compounds for 2 h, washed, and lysed in Bio-Plex whole cell lysis buffer A. Samples are diluted with buffer B 1:1 (v/v) and directly transferred to assay plate or frozen at −80 C. degrees until processed. 50 μL of diluted MDA-MB-231 cell lysates were incubated with about 2000 of 5 micron Bio-Plex beads conjugated with an anti-ERK½ antibody overnight on a shaker at room temperature. The next day, biotinylated phospho-ERK½ sandwich immunoassay was performed, beads are washed 3 times during each incubation and then 50 μL of PE-strepavidin was used as a developing reagent. The relative fluorescence units of pERK½ were detected by counting 25 beads with Bio-Plex flow cell (probe) at high sensitivity. The IC50 was calculated by taking untreated cells as maximum and no cells (beads only) as background using in an Excel spreadsheet based program.
# [3] = system: MDA-MB-231 cells; assay: MDA-MB231 proliferation assay (CellTiter-Glo); assay type: cell-based; conditions: Homo sapiens, 72 hours
# Experimental: Human breast carcinoma cells (MDA MB-231, NCI) were cultured in standard growth medium (DMEM) supplemented with 10% heat-inactivated FBS at 37° C. in 5% CO2 (vol/vol) in a humidified incubator. Cells were plated at a density of 3000 cells per well in 90 μL growth medium in a 96 well culture dish. In order to determine T0h CTG values, 24 hours after plating, 100 μL of CellTiter-Glo Luminescent Reagent (Promega) was added to each well and incubated at room temperature for 30 minutes. Luminescence was recorded on a Wallac Victor II instrument. The CellTiter-Glo reagent results in cell lysis and generation of a luminescent signal proportional to the amount of ATP present, which, in turn is directly proportional to the number of cells present.
# Test compounds are dissolved in 100% DMSO to prepare 10 mM stocks. […] The cells with and without individual test compounds were incubated for 72 hours at which time ATP dependent luminescence was measured, as described previously, to yield T72h values. Optionally, the IC50 values can be determined with a least squares analysis program using compound concentration versus percent inhibition. % Inhibition=[1−(T72h test−T0h)/(T72h ctrl−T0h)]×100, where T72h test=ATP dependent luminescence at 72 hours in the presence of test compound T72h ctrl=ATP dependent luminescence at 72 hours in the absence of test compound T0h=ATP dependent luminescence at Time Zero
# [4] = system: phospho-PDGFR-beta in aortic smooth muscle cells; assay: pPDGFR-beta in AoSMC cells; assay type: cell-based; conditions: PDGF-BB stimulated
# Experimental: 100K P3-P6 Aortic SMC were plated in each well of 12-well cluster in 1000 μL volume/well of SGM-2 using standard cell culture techniques. Next day, cells were rinsed with 1000 μL D-PBS once, then serum starved in 500 μL SBM (smooth muscle cell basal media) with 0.1% BSA overnight. Compounds were diluted at a dose range from (10 μM to 1 nM in 10-fold dilution steps in DMSO. Final DMSO concentration 0.1%). Remove old media by inversion into the sink quickly then add 100 μL of each dilution to corresponding well of cells for 1 h at 37° C. Cells were then stimulated with 10 ng/mL PDGF-BB ligand for 7 min at 37° C. The media is decanted and 150 μL of isotonic lysis buffer with protease inhibitor tablet (Complete; EDTA-free) and 0.2 mM Na vanadate is added. Cells are lysed for 15 min at 4° C. on shaker in cold room. Lysates are put in eppendorf tubes to which 15 μL of agarose-conjugated anti-PDGFR-beta antibody is added and incubated at 4° C. overnight. Next day, beads are rinsed in 50-volumes of PBS three times and boiled in 1×LDS sample buffer for 5 minutes. Samples were run on 3-8% gradient Tris-Acetate gels and transferred onto Nitrocellulose. Membranes were blocked in 1% BSA/TBS-T for 1 hr. before incubation in anti-phospho-PDGFR-b (Tyr-857) antibody in blocking buffer (1:1000 dilution) for 1 h. […]
# T1 sequence (Q16539 whole entry): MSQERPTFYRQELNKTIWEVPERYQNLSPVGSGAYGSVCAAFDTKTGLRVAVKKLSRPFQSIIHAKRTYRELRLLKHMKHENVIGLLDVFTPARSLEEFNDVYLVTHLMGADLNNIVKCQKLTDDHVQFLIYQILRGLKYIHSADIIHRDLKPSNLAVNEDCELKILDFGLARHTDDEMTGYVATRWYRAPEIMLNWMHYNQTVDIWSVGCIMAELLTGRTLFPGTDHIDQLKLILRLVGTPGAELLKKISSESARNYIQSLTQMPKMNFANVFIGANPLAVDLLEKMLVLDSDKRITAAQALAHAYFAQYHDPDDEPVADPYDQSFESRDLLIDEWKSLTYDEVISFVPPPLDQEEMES
compound,measurement,setting,value
"CNC(=O)c1cc(Oc2ccc(NC(=O)Nc3ccc(Cl)c(C(F)(F)F)c3)c(F)c2)ccn1 [Example 1, 4{4-[3-(4-chloro-3-trifluoromethylphenyl)-ureido]-3-fluorophenoxy}-pyridine-2-carboxylic acid methylamide]",IC50,[1],24 nM
same,IC50,[2],22 nM
same,IC50,[3],600 nM
same,IC50,[4],43.6 nM
